Assay results from patent US7407958B2, “2-pyridyl substituted imidazoles as ALK5 and/or ALK4 inhibitors” (SK Chemicals Co., Ltd., priority 2004, dated 2008).

How the values were obtained:
IKK-1 = IKK-1 (Homo sapiens, UniProt O15111); assay: Protein kinase activity in vitro; assay type: biochemical
p38α = p38α (Homo sapiens, UniProt Q16539); assay: Protein kinase activity in vitro; assay type: biochemical
p38β = p38β (Homo sapiens, UniProt Q15759); assay: Protein kinase activity in vitro; assay type: biochemical
HER2 receptor = HER2 receptor (Homo sapiens, UniProt P04626); assay: Protein kinase activity in vitro; assay type: biochemical
Insulin receptor = Insulin receptor (Homo sapiens, UniProt P06213); assay: Protein kinase activity in vitro; assay type: biochemical
Cdk1/Cyclin B = Cdk1/Cyclin B (Homo sapiens, UniProt P06493); assay: Protein kinase activity in vitro; assay type: biochemical
Lck = Lck (Homo sapiens, UniProt P06239); assay: Protein kinase activity in vitro; assay type: biochemical
PKCα = PKCα (Homo sapiens, UniProt P17252); assay: Protein kinase activity in vitro; assay type: biochemical
PKCη = PKCη (Homo sapiens, UniProt P24723); assay: Protein kinase activity in vitro; assay type: biochemical
PKCμ = PKCμ (Homo sapiens, UniProt Q15139); assay: Protein kinase activity in vitro; assay type: biochemical
Cdk5/p35 = Cdk5/p35 (Homo sapiens, UniProt Q00535); assay: Protein kinase activity in vitro; assay type: biochemical
p38γ = p38γ (Homo sapiens, UniProt P53778); assay: Protein kinase activity in vitro; assay type: biochemical
PKA, non-selective = assay: Protein kinase activity in vitro; assay type: biochemical
PKCε = PKCε (Homo sapiens, UniProt Q02156); assay: Protein kinase activity in vitro; assay type: biochemical
PKCβ1 = PKCβ1 (Homo sapiens, UniProt P05771); assay: Protein kinase activity in vitro; assay type: biochemical
ALK5 = ALK5 (Homo sapiens, UniProt P36897, T204D); assay: biochemical
Procedure: The His-tagged, constitutively active ALK5 (T204D) and Smad3 full protein were expressed in insect cells using the Invitrogen BacNBlue baculovirus expression system. Expressed proteins were purified with Qiagen Ni-NTA resin column. The purified smad3 protein 200 ng was mixed with 100 μL of 0.1 M sodium bicarbonate coating buffer and coated into Flash-Plates by pipetting. Plates were covered and incubated at 4° C. for 16 hours. Then the plates were washed 3 times with 200 μL of coating buffer and allowed to block in 1% BSA in PBS at room temperature for 1 hour. The purified ALK5 protein 100 ng was mixed with 100 μL of reaction buffer containing 20 mM Tris-HCl (pH 7.4), 5 mM MgCl2, 1 mM CaCl2, 1 mM DTT, 1 μM ATP and 2 μCi ?-^32p-ATP, and 1 μL of each test compound of formula (I) prepared in 100% DMSO solution at different concentrations. The assay was then initiated with the addition of ALK5 reaction mixture into Smad3-coated Flash-Plates, followed by incubation at 30° C. for 3 hours. After incubation, the assay buffer was removed and washed 3 times with 200 μL of 10 mM sodium pyrophosphate solution. Then, the Flash-Plates were air-dried and counted on a Packard TopCount.

p38δ = p38δ (Homo sapiens, UniProt O15264); assay: Protein kinase activity in vitro; assay type: biochemical
IKK-2 = IKK-2 (Homo sapiens, UniProt O14920); assay: Protein kinase activity in vitro; assay type: biochemical
pp60^C-SRC = pp60^C-SRC (Homo sapiens, UniProt P12931); assay: Protein kinase activity in vitro; assay type: biochemical
PKCδ = PKCδ (Homo sapiens, UniProt Q05655); assay: Protein kinase activity in vitro; assay type: biochemical
JNK2α2 = JNK2α2 (Homo sapiens, UniProt P45984); assay: Protein kinase activity in vitro; assay type: biochemical
Cdk2/Cyclin A = Cdk2/Cyclin A (Homo sapiens, UniProt P24941); assay: Protein kinase activity in vitro; assay type: biochemical
GSK-3β = GSK-3β (Homo sapiens, UniProt P49841); assay: Protein kinase activity in vitro; assay type: biochemical
MEK1 = MEK1 (Homo sapiens, UniProt Q02750); assay: Protein kinase activity in vitro; assay type: biochemical
PKCγ = PKCγ (Homo sapiens, UniProt P05129); assay: Protein kinase activity in vitro; assay type: biochemical
JNK1α1 = JNK1α1 (Homo sapiens, UniProt P45983); assay: Protein kinase activity in vitro; assay type: biochemical
Ca^2+/Calmodulin-Dep. II = assay: Protein kinase activity in vitro; assay type: biochemical
CHK2 = CHK2 (Homo sapiens, UniProt O96017); assay: Protein kinase activity in vitro; assay type: biochemical
CHK1 = CHK1 (Homo sapiens, UniProt O14757); assay: Protein kinase activity in vitro; assay type: biochemical
p70^56k = p70^56k (Homo sapiens, UniProt P23443); assay: Protein kinase activity in vitro; assay type: biochemical
PKCζ = PKCζ (Homo sapiens, UniProt Q05513); assay: Protein kinase activity in vitro; assay type: biochemical
EGF Receptor = EGF Receptor (Homo sapiens, UniProt P00533); assay: Protein kinase activity in vitro; assay type: biochemical
PKCβ2 = PKCβ2 (Homo sapiens, UniProt P05771); assay: Protein kinase activity in vitro; assay type: biochemical
Lyn A = Lyn A (Homo sapiens, UniProt P07948); assay: Protein kinase activity in vitro; assay type: biochemical; settings: 10 μM (two lines printed)
PKBα/Akt1 = PKBα/Akt1 (Homo sapiens, UniProt P31749); assay: Protein kinase activity in vitro; assay type: biochemical
ERK1 = ERK1 (Homo sapiens, UniProt P27361); assay: Protein kinase activity in vitro; assay type: biochemical
PDK1 = PDK1 (Homo sapiens, UniProt O15530); assay: Protein kinase activity in vitro; assay type: biochemical

Lyn A, sequence (P07948 whole entry, species assumed): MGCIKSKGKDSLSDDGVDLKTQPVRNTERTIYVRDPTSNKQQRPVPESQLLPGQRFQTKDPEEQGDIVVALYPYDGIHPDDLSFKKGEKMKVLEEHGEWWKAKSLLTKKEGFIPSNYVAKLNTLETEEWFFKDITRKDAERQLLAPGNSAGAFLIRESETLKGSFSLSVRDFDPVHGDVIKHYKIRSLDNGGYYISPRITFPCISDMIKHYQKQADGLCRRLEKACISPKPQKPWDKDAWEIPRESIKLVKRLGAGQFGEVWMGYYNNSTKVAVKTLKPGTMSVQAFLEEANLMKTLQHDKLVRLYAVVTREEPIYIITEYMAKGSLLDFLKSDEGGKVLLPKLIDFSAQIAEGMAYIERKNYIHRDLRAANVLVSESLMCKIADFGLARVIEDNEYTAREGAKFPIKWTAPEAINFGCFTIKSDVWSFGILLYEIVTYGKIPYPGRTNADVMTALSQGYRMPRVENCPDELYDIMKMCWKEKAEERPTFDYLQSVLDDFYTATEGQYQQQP
JNK2α2, sequence (P45984 whole entry): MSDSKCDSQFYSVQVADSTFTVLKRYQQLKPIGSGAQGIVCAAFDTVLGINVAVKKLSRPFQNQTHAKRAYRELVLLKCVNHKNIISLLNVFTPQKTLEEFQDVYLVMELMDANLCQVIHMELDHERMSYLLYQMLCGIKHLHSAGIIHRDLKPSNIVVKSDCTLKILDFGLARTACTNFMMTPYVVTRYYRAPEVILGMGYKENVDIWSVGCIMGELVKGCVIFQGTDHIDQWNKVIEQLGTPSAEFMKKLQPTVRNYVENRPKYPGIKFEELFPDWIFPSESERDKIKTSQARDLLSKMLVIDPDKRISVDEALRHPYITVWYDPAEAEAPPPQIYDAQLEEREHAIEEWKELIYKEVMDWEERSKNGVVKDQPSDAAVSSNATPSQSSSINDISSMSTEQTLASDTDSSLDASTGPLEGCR
p38α, sequence (Q16539 whole entry): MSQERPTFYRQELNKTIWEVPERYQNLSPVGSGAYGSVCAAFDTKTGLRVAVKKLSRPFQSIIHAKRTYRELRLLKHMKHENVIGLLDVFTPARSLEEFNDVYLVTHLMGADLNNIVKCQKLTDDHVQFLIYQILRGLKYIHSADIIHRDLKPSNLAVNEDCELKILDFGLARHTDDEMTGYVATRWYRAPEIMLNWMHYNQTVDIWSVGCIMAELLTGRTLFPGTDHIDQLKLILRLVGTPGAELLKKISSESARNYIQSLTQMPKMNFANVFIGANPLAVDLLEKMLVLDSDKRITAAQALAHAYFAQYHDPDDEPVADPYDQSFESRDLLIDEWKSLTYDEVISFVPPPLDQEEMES
PKCμ, sequence (Q15139 whole entry): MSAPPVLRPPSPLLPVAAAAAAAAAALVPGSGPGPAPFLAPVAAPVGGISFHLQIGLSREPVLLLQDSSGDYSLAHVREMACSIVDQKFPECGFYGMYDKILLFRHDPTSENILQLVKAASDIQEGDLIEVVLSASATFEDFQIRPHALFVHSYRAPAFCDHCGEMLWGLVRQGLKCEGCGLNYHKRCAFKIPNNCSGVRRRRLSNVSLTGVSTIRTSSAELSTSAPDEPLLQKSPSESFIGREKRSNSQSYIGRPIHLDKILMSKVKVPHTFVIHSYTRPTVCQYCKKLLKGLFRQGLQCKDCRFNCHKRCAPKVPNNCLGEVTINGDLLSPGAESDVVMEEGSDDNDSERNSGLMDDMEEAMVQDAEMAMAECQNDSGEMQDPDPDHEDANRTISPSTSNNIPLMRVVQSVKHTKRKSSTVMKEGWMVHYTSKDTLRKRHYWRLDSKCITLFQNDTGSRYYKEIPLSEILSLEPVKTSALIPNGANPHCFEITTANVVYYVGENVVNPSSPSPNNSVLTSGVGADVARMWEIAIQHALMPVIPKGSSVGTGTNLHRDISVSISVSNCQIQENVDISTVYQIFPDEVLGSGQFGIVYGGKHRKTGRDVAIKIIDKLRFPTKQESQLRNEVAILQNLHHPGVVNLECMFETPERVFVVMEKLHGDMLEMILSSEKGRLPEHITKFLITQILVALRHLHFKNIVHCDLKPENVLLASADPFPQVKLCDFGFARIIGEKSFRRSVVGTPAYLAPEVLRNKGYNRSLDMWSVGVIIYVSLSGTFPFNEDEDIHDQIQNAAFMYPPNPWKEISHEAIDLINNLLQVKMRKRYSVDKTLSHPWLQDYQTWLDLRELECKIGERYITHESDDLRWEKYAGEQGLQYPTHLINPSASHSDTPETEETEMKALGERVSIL
MEK1, sequence (Q02750 whole entry, species assumed): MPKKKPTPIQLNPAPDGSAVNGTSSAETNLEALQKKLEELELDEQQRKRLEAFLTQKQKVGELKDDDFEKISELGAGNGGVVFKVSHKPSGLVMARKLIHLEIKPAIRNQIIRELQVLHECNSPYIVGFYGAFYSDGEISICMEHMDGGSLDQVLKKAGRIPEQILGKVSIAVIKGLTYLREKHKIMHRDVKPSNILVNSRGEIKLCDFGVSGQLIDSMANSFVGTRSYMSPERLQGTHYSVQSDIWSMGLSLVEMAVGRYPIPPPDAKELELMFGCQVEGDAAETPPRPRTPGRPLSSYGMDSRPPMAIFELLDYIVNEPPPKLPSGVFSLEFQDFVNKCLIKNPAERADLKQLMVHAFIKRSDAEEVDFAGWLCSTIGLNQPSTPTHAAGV
pp60^C-SRC, sequence (P12931 whole entry, species assumed): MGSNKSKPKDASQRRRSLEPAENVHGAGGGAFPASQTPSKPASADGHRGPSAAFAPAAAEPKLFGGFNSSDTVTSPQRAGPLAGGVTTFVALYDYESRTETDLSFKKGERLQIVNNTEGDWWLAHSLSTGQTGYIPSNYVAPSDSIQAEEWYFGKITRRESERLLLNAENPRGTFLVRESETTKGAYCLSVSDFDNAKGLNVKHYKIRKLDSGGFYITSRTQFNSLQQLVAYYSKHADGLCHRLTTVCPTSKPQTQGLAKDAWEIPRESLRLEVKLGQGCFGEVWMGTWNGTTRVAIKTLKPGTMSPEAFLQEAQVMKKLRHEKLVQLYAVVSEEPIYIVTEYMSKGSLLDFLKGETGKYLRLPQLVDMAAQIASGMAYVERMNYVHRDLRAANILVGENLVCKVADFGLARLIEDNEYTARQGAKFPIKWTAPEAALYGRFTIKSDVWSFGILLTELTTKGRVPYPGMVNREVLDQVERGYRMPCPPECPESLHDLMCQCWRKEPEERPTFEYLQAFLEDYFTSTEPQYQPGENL
PKCδ, sequence (Q05655 whole entry): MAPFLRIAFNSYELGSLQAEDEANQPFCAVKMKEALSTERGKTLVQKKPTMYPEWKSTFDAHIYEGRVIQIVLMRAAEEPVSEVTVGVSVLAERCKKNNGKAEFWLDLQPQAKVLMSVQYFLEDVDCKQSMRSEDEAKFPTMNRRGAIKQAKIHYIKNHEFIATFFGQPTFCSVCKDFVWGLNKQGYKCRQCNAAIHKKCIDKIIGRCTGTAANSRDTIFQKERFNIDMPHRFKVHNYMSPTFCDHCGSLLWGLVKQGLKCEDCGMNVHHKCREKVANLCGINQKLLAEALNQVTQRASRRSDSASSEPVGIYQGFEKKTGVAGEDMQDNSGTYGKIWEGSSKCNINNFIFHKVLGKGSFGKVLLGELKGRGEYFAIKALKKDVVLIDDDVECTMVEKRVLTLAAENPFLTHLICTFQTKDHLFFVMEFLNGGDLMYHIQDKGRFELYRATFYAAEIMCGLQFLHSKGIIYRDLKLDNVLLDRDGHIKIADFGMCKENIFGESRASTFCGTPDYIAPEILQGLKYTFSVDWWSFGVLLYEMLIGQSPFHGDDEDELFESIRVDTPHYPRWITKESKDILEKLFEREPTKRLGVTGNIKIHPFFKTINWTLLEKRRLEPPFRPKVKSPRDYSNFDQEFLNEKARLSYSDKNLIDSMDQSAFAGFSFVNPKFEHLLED
PKCβ1, sequence (P05771 whole entry): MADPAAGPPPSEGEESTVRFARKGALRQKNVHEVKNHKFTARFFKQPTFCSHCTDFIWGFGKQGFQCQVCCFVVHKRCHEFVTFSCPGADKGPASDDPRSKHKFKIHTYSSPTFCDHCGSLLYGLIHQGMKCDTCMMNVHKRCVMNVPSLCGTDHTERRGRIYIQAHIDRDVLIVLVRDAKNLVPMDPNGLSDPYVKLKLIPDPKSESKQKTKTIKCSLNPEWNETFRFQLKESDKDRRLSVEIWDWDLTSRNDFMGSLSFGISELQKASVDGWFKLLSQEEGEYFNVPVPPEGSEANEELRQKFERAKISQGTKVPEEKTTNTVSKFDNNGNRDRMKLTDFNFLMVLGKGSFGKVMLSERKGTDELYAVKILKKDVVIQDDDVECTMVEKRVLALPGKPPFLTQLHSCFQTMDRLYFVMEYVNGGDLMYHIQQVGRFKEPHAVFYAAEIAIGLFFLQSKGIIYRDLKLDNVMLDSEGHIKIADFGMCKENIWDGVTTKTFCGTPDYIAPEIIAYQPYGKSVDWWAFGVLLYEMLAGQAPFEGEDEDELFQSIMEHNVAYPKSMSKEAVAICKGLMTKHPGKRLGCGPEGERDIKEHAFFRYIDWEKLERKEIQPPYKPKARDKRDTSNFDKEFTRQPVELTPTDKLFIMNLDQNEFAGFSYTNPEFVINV
ALK5, sequence (P36897 34-503 T204D, species assumed): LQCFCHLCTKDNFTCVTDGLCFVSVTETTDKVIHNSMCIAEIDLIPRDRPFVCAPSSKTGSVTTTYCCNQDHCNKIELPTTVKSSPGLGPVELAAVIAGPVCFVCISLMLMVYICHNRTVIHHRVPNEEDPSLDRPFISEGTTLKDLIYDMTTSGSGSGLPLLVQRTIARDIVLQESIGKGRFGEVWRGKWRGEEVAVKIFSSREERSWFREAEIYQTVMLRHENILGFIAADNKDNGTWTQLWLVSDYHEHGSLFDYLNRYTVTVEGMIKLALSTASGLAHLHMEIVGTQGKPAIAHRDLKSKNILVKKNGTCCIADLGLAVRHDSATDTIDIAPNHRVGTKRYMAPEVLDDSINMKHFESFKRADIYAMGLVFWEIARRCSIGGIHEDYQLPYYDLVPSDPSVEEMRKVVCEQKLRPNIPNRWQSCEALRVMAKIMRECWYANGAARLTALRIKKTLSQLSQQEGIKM

Cc1cccc(-c2[nH]c(Cc3cccc(C(N)=O)c3)nc2-c2ccc3nccnc3c2)n1 [Example 41, 3-((5-(6-methylpyridin-2-yl)-4-(quinoxalin-6-yl)-1(3)H-imidazol-2-yl)methyl)benzamide]
inhibition at 10 µM (IKK-1): 2%
inhibition at 1 µM (p38α; 1 μM): 25%
inhibition at 10 µM (p38α; 10 μM): 76%
inhibition at 10 µM (p38β): 48%
inhibition at 10 µM (HER2 receptor): 11%
inhibition at 10 µM (Insulin receptor): 15%
inhibition at 10 µM (Cdk1/Cyclin B): -3%
inhibition at 10 µM (Lck): 17%
inhibition at 10 µM (PKCα): -6%
inhibition at 10 µM (PKCη): -6%
inhibition at 1 µM (PKCμ; 1 μM): 31%
inhibition at 10 µM (PKCμ; 10 μM): 64%
inhibition at 10 µM (Cdk5/p35): -2%
inhibition at 10 µM (p38γ): 15%
% inhibition at 10 μM (PKA, non-selective): 27%
inhibition at 10 µM (PKCε): 1%
inhibition at 10 µM (PKCβ1): 10%
IC50 (ALK5): 5.3 nM
inhibition at 10 µM (p38δ): -19%
inhibition at 10 µM (IKK-2): 1%
inhibition at 10 µM (pp60^C-SRC): -3%
inhibition at 10 µM (PKCδ): 3%
inhibition at 1 µM (JNK2α2; 1 μM): 40%
inhibition at 10 µM (JNK2α2; 10 μM): 81%
inhibition at 10 µM (Cdk2/Cyclin A): 6%
inhibition at 10 µM (GSK-3β): 21%
inhibition at 1 µM (MEK1; 1 μM): 4%
inhibition at 10 µM (MEK1; 10 μM): 66%
inhibition at 10 µM (PKCγ): 3%
inhibition at 10 µM (JNK1α1): 11%
% inhibition at 10 μM (Ca^2+/Calmodulin-Dep. II): 1%
inhibition at 10 µM (CHK2): 18%
inhibition at 10 µM (CHK1): 10%
inhibition at 10 µM (p70^56k): -3%
inhibition at 10 µM (PKCζ): -9%
inhibition at 10 µM (EGF Receptor): 2%
inhibition at 10 µM (PKCβ2): -2%
inhibition at 10 µM (Lyn A): 37%
% inhibition at 10 μM (Lyn A; 10 µM): 42%
inhibition at 10 µM (PKBα/Akt1): 17%
inhibition at 10 µM (ERK1): 51%
inhibition at 10 µM (PDK1): 3%
